In assay [1] the target is T1, Dihydrofolate reductase (Pneumocystis carinii, UniProt P16184).
T1 sequence (P16184 whole entry): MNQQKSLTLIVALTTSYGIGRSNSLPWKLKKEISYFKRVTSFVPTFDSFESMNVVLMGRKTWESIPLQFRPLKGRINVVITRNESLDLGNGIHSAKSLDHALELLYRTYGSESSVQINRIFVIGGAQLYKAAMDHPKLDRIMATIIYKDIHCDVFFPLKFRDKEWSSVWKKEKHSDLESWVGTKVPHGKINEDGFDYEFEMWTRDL
Description: Inhibition of Pneumocystis carinii Dihydrofolate Reductase

Assay [2] has as its target T2, Bifunctional dihydrofolate reductase-thymidylate synthase (Toxoplasma gondii, UniProt Q07422).
T2 sequence (Q07422 whole entry): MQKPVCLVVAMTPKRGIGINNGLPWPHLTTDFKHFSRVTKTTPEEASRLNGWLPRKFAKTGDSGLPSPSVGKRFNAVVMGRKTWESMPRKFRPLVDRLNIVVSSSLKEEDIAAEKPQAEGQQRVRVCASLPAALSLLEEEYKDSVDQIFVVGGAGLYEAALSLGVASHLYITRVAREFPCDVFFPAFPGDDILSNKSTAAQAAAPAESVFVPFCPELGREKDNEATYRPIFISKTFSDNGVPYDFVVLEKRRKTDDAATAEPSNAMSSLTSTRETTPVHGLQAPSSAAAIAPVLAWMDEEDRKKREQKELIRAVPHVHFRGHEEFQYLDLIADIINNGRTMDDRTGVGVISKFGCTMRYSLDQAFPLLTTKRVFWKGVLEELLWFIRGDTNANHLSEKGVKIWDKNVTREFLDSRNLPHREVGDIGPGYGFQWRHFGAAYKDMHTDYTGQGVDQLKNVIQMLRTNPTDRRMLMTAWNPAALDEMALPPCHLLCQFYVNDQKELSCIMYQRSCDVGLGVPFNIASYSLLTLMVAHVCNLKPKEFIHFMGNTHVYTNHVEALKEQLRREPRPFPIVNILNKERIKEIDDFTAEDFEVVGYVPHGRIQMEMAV
Description: Inhibition of Toxoplasma gondii Dihydrofolate Reductase

For assay [3], the target named is T3, Dihydrofolate reductase (Rattus norvegicus, UniProt Q920D2).
T3 sequence (Q920D2 whole entry): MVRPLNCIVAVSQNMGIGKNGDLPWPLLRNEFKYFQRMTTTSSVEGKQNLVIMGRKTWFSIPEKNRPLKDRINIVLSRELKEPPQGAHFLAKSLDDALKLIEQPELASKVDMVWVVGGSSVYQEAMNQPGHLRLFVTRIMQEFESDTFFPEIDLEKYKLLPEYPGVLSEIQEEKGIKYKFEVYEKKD
Description: Inhibition of rat liver Dihydrofolate Reductase

Assay [4] can be described thus: Selectivity ratio of IC50 (rat liver)/IC50 (Pneumocystis carinii).
Assay [5] can be described thus: Selectivity ratio of IC50 (rat liver)/IC50 (Toxoplasma gondii.

The pIC50 is −log10 of the IC50, conventionally taken in molar units. Low readings indicate a large IC50, high ones a small IC50.

pIC50: −log10 of the molar value. A value given as a limit tells only on which side of the number the result lay.

With `COc1ccc(OC)c(N(C)Cc2c(Br)sc3nc(N)nc(N)c23)c1`, the pIC50 (at Dihydrofolate reductase [1]; in assay [2]; against Dihydrofolate reductase [3]) was below 5.00 throughout.
`COc1cc(N(C)Cc2c(Br)sc3nc(N)nc(N)c23)cc(OC)c1OC`: the Selectivity ratio in assay [4] came out at 0.88. Also, the pIC50 at Dihydrofolate reductase [1] is 4.51; in assay [2], 3.90; at Dihydrofolate reductase [3], 4.55.
In the case of `Nc1nc(N)c2c(CNc3cc(Cl)c(-n4cccc4)c(Cl)c3)c(Br)sc2n1`, the results for the Selectivity ratio in assay [4] and in assay [5] were 1.4 and 0.39, respectively. Further, the pIC50 against Dihydrofolate reductase [1] was 5.12; in assay [2], 4.59; against Dihydrofolate reductase [3], 5.00.
In the case of `COc1cc(Cc2cnc(N)nc2N)cc(OC)c1Br` [BRODIMOPRIM], the Selectivity ratio turned out to be 0.048 in assay [4] and 0.088 in assay [5]. Besides, the values for the pIC50 (on Dihydrofolate reductase [1]; in assay [2]; against Dihydrofolate reductase [3]) were 7.51, 7.77 and 7.82, respectively.
Regarding `COc1ccc(OC)c(NCc2c(Br)sc3nc(N)nc(N)c23)c1`, the pIC50 against Dihydrofolate reductase [1] is below 4.00; in assay [2], below 4.00; at Dihydrofolate reductase [3] it was 4.48.
On to `COc1cc(NCc2c(Br)sc3nc(N)nc(N)c23)cc(OC)c1OC`, for which the Selectivity ratio in assay [4] came to 1.2. Also, the pIC50 against Dihydrofolate reductase [1] is 4.89; in assay [2] it was 4.47; against Dihydrofolate reductase [3], 4.77.
